These results are taken from patent publication US20240261417A1, “SOS1 DEGRADING AGENT AND PREPARATION METHOD THEREFOR AND APPLICATION THEREOF” (SHANGHAI LEADINGTAC PHARMACEUTICAL CO. LTD., priority 2021, published 2024).

The test system of the experiment is KRAS G12V mutant human lung adenocarcinoma cells NCI-H441. Put plainly: 3D cell proliferation inhibition assay, NCI-H441. The conditions noted are these: Homo sapiens, NCI-H441, 168 h, 7 days, CTG. The format is cell-based. The procedure:
Inhibition of 3D cell proliferation by the compounds was investigated on KRAS G12C mutant human non-small cell lung cancer cells NCI-H358 (ATCC or Stem Cell Bank, Chinese Academy of Sciences), KRAS G12D mutant human metastatic pancreatic adenocarcinoma cells AsPC-1 (ATCC), KRAS G12V mutant human lung adenocarcinoma cells NCI-H441 (ATCC), and KRAS G13D mutant human colorectal adenocarcinoma epithelial cells DLD-1 (ATCC). The specific procedures were as follows:
200 nL of compound solution diluted in a gradient was added to corresponding microwells of a 384-well low-adsorption microwell plate (Corning, 3657) using an Echo sonic pipetting system (Labcyte, Echo 550), so that the final concentration of the test compound in the reaction system was in a range of 20000 nM-0.008 nM. Then 40 μL of cells at a certain density were added to the corresponding microplate. In addition to test wells for the test compounds, both a DMSO control well and a medium control well were set, with the DMSO control well containing DMSO and cells and the medium well containing only medium. After sample loading, the plate cover was applied, and the 384-well low-adsorption microplate was incubated in an incubator at 37° C. with 5% carbon dioxide for 7 days. After 7 days, the microplate was taken out, and 40 μL of CTG reagent (Promega, G9683) was added to each well. The plate was incubated at room temperature for 30 min and read on a microplate reader EnVision using the chemiluminescence program. The inhibition rates of the compounds at each concentration were calculated by the formula for the percentage inhibition of cell proliferation: inhibition rate %=(mean value of DMSO control group−single concentration reading value of compound)/(mean value of DMSO control group−mean value of medium control group)×100, and then nonlinear curve fitting was performed by GraphPad Prism 8 in the logarithmic concentration-inhibition rate to obtain the IC50 values of the compounds.

Take `COc1cc2nc(C)nc(N[C@H](C)c3cc(N)cc(C(F)(F)F)c3)c2cc1[C@H]1CC[C@H](C(=O)N2CCN(CCOCC3CCN(C(=O)c4ccc(Cl)c(N5CCC(=O)NC5=O)c4)CC3)CC2)CC1` [Example 33, 1-(5-(4-((2-(4-((1R,4R)-4-(4-(((R)-1-(3-amino-5-(trifluoromethyl)phenyl)ethyl)amino)-7-methoxy-2-methylquinazolin-6-yl)cyclohexane-1-carbonyl)piperazin-1-yl)ethoxy)methyl)piperidine-1-carbonyl)-2-chlorophenyl)dihydropyrimidine-2,4(1H,3H)-dione]: the IC50 (as a rule, the concentration that inhibits the measured activity by half) lay within 100 to 1000 nM. Next, `COc1cc2nc(C)nc(N[C@H](C)c3cc(N)cc(C(F)(F)F)c3)c2cc1[C@H]1CC[C@H](C(=O)N2CCN(CC3CCC4(CC3)CCN(C(=O)c3ccc(Cl)c(N5CCC(=O)NC5=O)c3)CC4)CC2)CC1` [Example 2, 1-(5-(9-((4-((1R,4R)-4-(4-(((R)-1-(3-amino-5-(trifluoromethyl)phenyl)ethyl)amino)-7-methoxy-2-methylquinazolin-6-yl)cyclohexane-1-carbonyl)piperazin-1-yl)methyl)-3-azaspiro[5.5]undecane-3-carbonyl)-2-chlorophenyl)dihydropyrimidine-2,4(1H,3H)-dione]: 100 to 1000 nM; `COc1cc2nc(C)nc(N[C@H](C)c3cc(N)cc(C(F)(F)F)c3)c2cc1[C@H]1CC[C@H](C(=O)N2CCN(CCC3CCC4(CC3)CCN(C(=O)c3ccc(Cl)c(N5CCC(=O)NC5=O)c3)CC4)CC2)CC1` [Example 1, 1-(5-(9-(2-(4-((1R,4R)-4-(4-(((R)-1-(3-amino-5-(trifluoromethyl)phenyl)ethyl)amino)-7-methoxy-2-methylquinazolin-6-yl)cyclohexane-1-carbonyl)piperazin-1-yl)ethyl)-3-azaspiro[5.5]undecane-3-carbonyl)-2-chlorophenyl)dihydropyrimidine-2,4(1H,3H)-dione]: 30 to 50 nM; `COc1cc2nc(C)nc(N[C@H](C)c3cc(N)cc(C(F)(F)F)c3)c2cc1[C@H]1CC[C@H](C(=O)N2CCC(CCOCC3CCN(C(=O)c4ccc(Cl)c(N5CCC(=O)NC5=O)c4)CC3)CC2)CC1` [Example 19, 1-(5-(4-((2-(1-((1R,4R)-4-(4-(((R)-1-(3-amino-5-(trifluoromethyl)phenyl)ethyl)amino)-7-methoxy-2-methylquinazolin-6-yl)cyclohexane-1-carbonyl)piperidin-4-yl)ethoxy)methyl)piperidine-1-carbonyl)-2-chlorophenyl)dihydropyrimidine-2,4(1H,3H)-dione]: 50 to 100 nM. Compound `COc1cc2nc(C)nc(N[C@H](C)c3cccc4c3CCS4(=O)=O)c2cc1[C@H]1CC[C@H](C(=O)N2CCN(CC3CCC4(CC3)CCN(C(=O)c3ccc(Cl)c(N5CCC(=O)NC5=O)c3)CC4)CC2)CC1` [Example 10, 1-(2-chloro-5-(9-((4-((1R,4R)-4-(4-(((R)-1-(1,1-dioxo-2,3-dihydrobenzo[b]thiophen-4-yl)ethyl)amino)-7-methoxy-2-methylquinazolin-6-yl)cyclohexane-1-carbonyl)piperazin-1-yl)methyl)-3-azaspiro[5.5]undecane-3-carbonyl)phenyl)dihydropyrimidine-2,4(1H,3H)-dione] came in with an IC50 not above 15 nM. Next, `CNCc1ccccc1-c1csc([C@@H](C)Nc2nc(C)nc3cc(OC)c([C@H]4CC[C@H](C(=O)N5CCN(CC6CCC7(CC6)CCN(C(=O)c6ccc(OC)c(N8CCC(=O)NC8=O)c6)CC7)CC5)CC4)cc23)c1` [Example 73, 1-(2-methoxy-5-(9-((4-((1R,4R)-4-(7-methoxy-2-methyl-4-(((R)-1-(4-(2-((methylamino)methyl)phenyl)thien-2-yl)ethyl)amino)quinazolin-6-yl)cyclohexane-1-carbonyl)piperazin-1-yl)methyl)-3-azaspiro[5.5]undecane-3-carbonyl)phenyl)dihydropyrimidine-2,4(1H,3H)-dione]: 100 to 1000 nM.
